This assay addresses T1, GLP-1 R (Mus musculus, UniProt O35659).
T1 construct: GLP-1 (murine cell line) cellular assays
T1 sequence (O35659 22-463): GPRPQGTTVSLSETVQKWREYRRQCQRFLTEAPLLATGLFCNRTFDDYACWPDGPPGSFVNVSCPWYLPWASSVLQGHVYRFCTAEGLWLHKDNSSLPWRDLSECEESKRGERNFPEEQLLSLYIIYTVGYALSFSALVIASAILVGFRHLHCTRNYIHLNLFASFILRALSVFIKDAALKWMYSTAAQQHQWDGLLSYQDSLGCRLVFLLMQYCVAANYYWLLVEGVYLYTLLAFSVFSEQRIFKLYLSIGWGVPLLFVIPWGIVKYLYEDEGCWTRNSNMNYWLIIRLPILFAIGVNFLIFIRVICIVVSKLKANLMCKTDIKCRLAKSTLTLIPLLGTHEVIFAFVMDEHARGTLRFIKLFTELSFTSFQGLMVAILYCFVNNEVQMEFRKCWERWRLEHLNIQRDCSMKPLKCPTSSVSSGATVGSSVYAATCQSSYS
As to the kind of experiment: Cerep cellular assay, stimulation of cAMP levels, GLP-1 (murine cell line). The assay is classed as cell-based. On the set-up: key: §means superagonist; n.c. means EC50 not calculable. The conditions noted are these: for EC50 GLP-1 R (nM): n.c. = EC50 not calculable. The procedure:
Compounds were weighed precisely in an amount of about 1 mg and assayed in standard cellular assays (Cerep SA). The readout was the amount of cAMP generated in the cells treated with the test compounds, in either agonist or antagonist mode. […] The assays are described in Chicchi et al., J. Biol. Chem., 272:7765-7769 (1997) and Runge et al., Br. J. Pharmacol., 138:787-794 (2003).

Square brackets hold non-standard residues; d marks the D form. Peptide text beside a SMILES is read from it. * marks the point of attachment. GlcA(β-D,1-O-dodecyl) = CCCCCCCCCCCCO[C@@H]1O[C@H](C(=O)*)[C@@H](O)[C@H](O)[C@H]1O; Ac4c = NC1(C(=O)O)CCC1; Aib = CC(C)(N)C(=O)O

As for `CCCCCCCCCCCCO[C@@H]1O[C@H](C(=O)NCCCC[C@H](NC(=O)[C@H](CC(=O)O)NC(=O)[C@H](CC(C)C)NC(=O)[C@H](Cc2ccc(O)cc2)NC(=O)[C@H](CCCCN)NC(=O)[C@H](CO)NC(=O)[C@H](Cc2ccc(O)cc2)NC(=O)[C@H](CC(=O)O)NC(=O)[C@H](CO)NC(=O)[C@@H](NC(=O)[C@H](Cc2ccccc2)NC(=O)[C@@H](NC(=O)CNC(=O)[C@H](CCC(N)=O)NC(=O)C(C)(C)NC(=O)[C@@H](N)Cc2c[nH]cn2)[C@@H](C)O)[C@@H](C)O)C(=O)NC2(C(N)=O)CCC2)[C@@H](O)[C@H](O)[C@H]1O` [EU-A522] (H-H[Aib]QGTFTSDYSKYLDK(GlcA(β-D,1-O-dodecyl))[Ac4c]-NH2; N-terminus assumed), the “EC50 GLP-1 R (nM)” value is listed as “n.c”.

For `CCCCCCCCCCCCO[C@@H]1O[C@H](C(=O)NCCCC[C@H](NC(=O)[C@H](CO)NC(=O)[C@H](CC(=O)O)NC(=O)[C@H](CC(C)C)NC(=O)[C@H](Cc2ccc(O)cc2)NC(=O)[C@H](CCCCN)NC(=O)[C@H](CO)NC(=O)[C@H](Cc2ccc(O)cc2)NC(=O)[C@H](CC(=O)O)NC(=O)[C@H](CO)NC(=O)[C@@H](NC(=O)[C@H](Cc2ccccc2)NC(=O)[C@@H](NC(=O)CNC(=O)[C@H](CCC(N)=O)NC(=O)C(C)(C)NC(=O)[C@@H](N)Cc2c[nH]cn2)[C@@H](C)O)[C@@H](C)O)C(=O)NC(C)(C)C(N)=O)[C@@H](O)[C@H](O)[C@H]1O` [EU-A527], the “EC50 GLP-1 R (nM)” value is reported as “n.c”.

Turning to `CCCCCCCCCCCCO[C@@H]1O[C@H](C(=O)NCCCC[C@H](NC(=O)[C@H](CO)NC(=O)[C@H](CC(=O)O)NC(=O)[C@H](CC(C)C)NC(=O)[C@H](Cc2ccc(O)cc2)NC(=O)[C@H](CCCCN)NC(=O)[C@H](CO)NC(=O)[C@H](Cc2ccc(O)cc2)NC(=O)[C@H](CC(=O)O)NC(=O)[C@H](CO)NC(=O)[C@@H](NC(=O)[C@H](Cc2ccccc2)NC(=O)[C@@H](NC(=O)CNC(=O)[C@H](CCC(N)=O)NC(=O)C(C)(C)NC(=O)[C@@H](N)Cc2c[nH]cn2)[C@@H](C)O)[C@@H](C)O)C(=O)N[C@@H](CCCNC(=N)N)C(=O)NC(C)(C)C(N)=O)[C@@H](O)[C@H](O)[C@H]1O` [EU-A529], the “EC50 GLP-1 R (nM)” value was “n.c”.

`CCCCCCCCCCCCCCO[C@@H]1O[C@H](C(=O)NCCCC[C@H](NC(=O)[C@H](CCCNC(=N)N)NC(=O)[C@H](CO)NC(=O)[C@H](CC(=O)O)NC(=O)[C@H](CC(C)C)NC(=O)[C@H](Cc2ccc(O)cc2)NC(=O)[C@H](CCCCN)NC(=O)[C@H](CO)NC(=O)[C@H](Cc2ccc(O)cc2)NC(=O)[C@H](CC(=O)O)NC(=O)[C@H](CO)NC(=O)[C@@H](NC(=O)[C@H](Cc2ccccc2)NC(=O)[C@@H](NC(=O)CNC(=O)[C@H](CCC(N)=O)NC(=O)C(C)(C)NC(=O)[C@@H](N)Cc2c[nH]cn2)[C@@H](C)O)[C@@H](C)O)C(=O)NC(C)(C)C(N)=O)[C@@H](O)[C@H](O)[C@H]1O` [EU-A535]: the “efficacy class at GLP-1 R (mark in EC50 cell)” value was “§4800”.

For `CCCCCCCCCCCCCCO[C@@H]1O[C@H](C(=O)NCCCC[C@@H]2NC(=O)[C@H](CCC(N)=O)NC(=O)[C@@H](NC(=O)[C@H](CC(=O)O)NC(=O)[C@H](CC(C)C)NC(=O)[C@H](Cc3ccc(O)cc3)NC(=O)[C@H](CCCCN)NC(=O)[C@H](CO)NC(=O)[C@H](Cc3ccc(O)cc3)NC(=O)[C@H](CC(=O)O)NC(=O)[C@H](CO)NC(=O)[C@@H](NC(=O)[C@H](Cc3ccccc3)NC(=O)[C@@H](NC(=O)CNC(=O)[C@H](CCC(N)=O)NC(=O)C(C)(C)NC(=O)[C@@H](N)Cc3c[nH]cn3)[C@@H](C)O)[C@@H](C)O)CCC(=O)NCCCC[C@@H](C(N)=O)NC(=O)[C@H](C)NC2=O)[C@@H](O)[C@H](O)[C@H]1O` [EU-A540], the “EC50 GLP-1 R (nM)” value was “n.c”.

The values above are taken from patent US11541028B2, “Peptide pharmaceuticals for treatment of NASH and other disorders” (Mederis Diabetes LLC, priority 2018, dated 2023).
